According to patent publication US11364220B2, “Compounds and methods for inhibiting CPY26 enzymes” (Queen's University at Kingston, priority 2016, dated 2022):
pIC50: −log10 of the molar value.

Experiments:
CYP26A1 = CYP26A1 (Homo sapiens (Human), UniProt O43174); test: Cell-based inhibitor assay, [H]-RA metabolism in CYP26A1 stably transfected HeLa cells; settings: for pIC50: CYP26A1 transfected HeLa cells, 3 hours at 37° C., inhibition of all trans-RA metabolism, read-out: IC50 26A1
Protocol: (§1) CYP26A1 or CYP26B1 stably transfected HeLa cells were maintained in Minimum Essential Medium (MEM) containing 10% fetal bovine serum (FBS) and 100 μg/mL hygromycin. Exponentially growing cells were harvested by incubation in trypsin. Cells were then collected and re-plated in 48-well culture plates at 5×10^5 cells in 0.2 mL of culture medium containing 0.05 μCi [H]-RA in the presence or absence of increasing concentrations of a test compound. The test compounds were diluted in dimethyl sulfoxide (DMSO) and then added in duplicate to wells at 0.01, 0.1, 1, 10 and 100 μM final concentration. […] Cells were incubated for 3 hours at 37° C. Retinoids were then extracted using the procedure of Bligh, et al., (1959), Canadian Journal of Biochemistry 37, 911-917, which was modified by using dichloromethane instead of chloroform. Each sample's water soluble radioactivity level was quantified using a β-scintillation counter (using Ecolume scintillation fluid, available from MP Biomedicals of Solon, Ohio, USA).

CYP26B1 = CYP26B1 (Homo sapiens (Human), UniProt Q9NR63); test: Cell-based inhibitor assay, [H]-RA metabolism in CYP26B1 stably transfected HeLa cells; settings: for pIC50: CYP26B1 transfected HeLa cells, 3 hours at 37° C., inhibition of all trans-RA metabolism, read-out: IC50 26B1
Protocol: as §1

[1] = system: RA sensitive reporter construct pCYP26A1-luc in MCF-7 cells; test: Retinoid activity assay, RA sensitive pCYP26A1-luc reporter in MCF-7 cells; format: cell-based; settings: 24 hours, firefly relative to Renilla luciferase
From the text: This retinoid activity assay measures the ability of test compounds to induce expression of a transiently transfected RA sensitive reporter construct. In this assay, MCF-7 cells are transfected with a construct comprising an upstream promoter of the CYP26A1 gene containing 2 RA response elements driving expression of firefly luciferase (pCYP26A1-luc). Since CYP26A1 is highly inducible by RA in these cells, this construct serves as a sensitive reporter of retinoid-like transcriptional activity.
MCF-7 cells were maintained in RPMI-1640 medium containing 10% FBS. Exponentially growing cells were harvested by incubation in trypsin. Cells were then collected and plated in 24-well plates at 50,000 cells/well. Once cells reached 80-90% confluence (e.g., the next day), cells were transfected with two plasmids. The first plasmid was CYP26A1-luc construct (375 ng). The second plasmid was a control plasmid comprising the Renilla luciferase gene driven by constitutive thymidine kinase promoter (pRL-tk) (25 ng). Transfection was performed using FuGene 6 transfection reagent (Promega) with a 1:3 ratio of DNA:FuGene. 24 hours after transfection, cells were treated with test compounds diluted in DMSO in triplicate at 0.1, 1 and 10 μM final concentrations. As a positive control for reporter activation, cells were also treated with RA diluted in DMSO at the same concentrations listed above. DMSO treatment alone served as a negative control. After 24 hours of treatment, cells were harvested in passive lysis buffer (Promega) and luciferase activity in cell lysates were read using a luminometer. Data are expressed as the activity of firefly luciferase relative to Renilla luciferase (see Table 3). For CYP26A1 inhibitor compounds, no activation of the reporter was detected, while the related retinoid-like compound induces luciferase expression.

[2] = system: CYP26A1 expression in MCF-7 cells; test: Enhancement of RA activity assay, qPCR of CYP26A1 in MCF-7 cells treated with RA plus compound; format: cell-based; settings: 1 μM RA + 1 μM compound, 24, 48, 72 hours
Protocol: An RA activity assay was used to measure the ability of compounds that inhibit CYP26A1 to enhance activity of RA, for example, by limiting its catabolism. This assay measured expression of endogenous RA target genes in MCF-7 cells that have been treated with RA and a compound of interest. A compound that inhibits CYP26 activity will have the effect of prolonging the induction of RA target genes in response to RA.
Exponentially growing MCF-7 cells were treated with trypsin, collected and plated into 6-well culture dishes at 300,000 cells per well. […] RA was also added at a final concentration of 1 μM. RNA was harvested using Trizol reagent after 24, 48, and 72 hours of treatment. cDNA was synthesized from 2 μg of total RNA using Superscript III cDNA synthesis kit with random priming (available from Life Technologies, Burlington, ON, Canada). Analysis of expression of the RA inducible CYP26A1 gene was quantified by qPCR normalized against expression of PMM2 with Sybr Select Master Mix (Life Technologies) and gene specific primers in a two-step thermal cycling reaction. Data is provided for a CYP26A1 selective inhibitor, which enhances the induction of CYP26A1.

[3] = system: CYP26A1 expression in MCF-7 cells; test: qPCR of endogenous RA target gene CYP26A1 in MCF-7 cells, compound alone; format: cell-based; settings: 1 μM
Protocol: Additionally, for some compounds of particular interest, a second assay is performed to measure expression of endogenous RA target genes after treatment with test compounds in MCF-7 cells. Exponentially growing MCF-7 cells were treated with trypsin, collected and plated into 6-well culture dishes at 300,000 cells per well. Once cells reached confluency, they were treated with test compounds diluted in DMSO to a final concentration of 1 μM. As a positive control, cells were also treated with RA at 1 μM final concentration. After 24 hours of treatment, RNA was harvested using TRI reagent (available from Sigma-Aldrich, Oakville, Canada). cDNA was synthesized from 2 μg of total RNA using Superscript III cDNA synthesis kit with random priming (kit available from Life Technologies, Burlington, ON, Canada). Analysis of expression of a RA inducible CYP26A1 gene was quantified by qPCR normalized against expression of PMM2 with Sybr Select Master Mix (Life Technologies) and gene specific primers in a two-step thermal cycling reaction. Data is shown in Table 2 for select compounds of interest. […] See FIGS. 1 and 2 for graphs of retinoid activity.

Sequence of CYP26A1 (O43174 whole entry, species assumed): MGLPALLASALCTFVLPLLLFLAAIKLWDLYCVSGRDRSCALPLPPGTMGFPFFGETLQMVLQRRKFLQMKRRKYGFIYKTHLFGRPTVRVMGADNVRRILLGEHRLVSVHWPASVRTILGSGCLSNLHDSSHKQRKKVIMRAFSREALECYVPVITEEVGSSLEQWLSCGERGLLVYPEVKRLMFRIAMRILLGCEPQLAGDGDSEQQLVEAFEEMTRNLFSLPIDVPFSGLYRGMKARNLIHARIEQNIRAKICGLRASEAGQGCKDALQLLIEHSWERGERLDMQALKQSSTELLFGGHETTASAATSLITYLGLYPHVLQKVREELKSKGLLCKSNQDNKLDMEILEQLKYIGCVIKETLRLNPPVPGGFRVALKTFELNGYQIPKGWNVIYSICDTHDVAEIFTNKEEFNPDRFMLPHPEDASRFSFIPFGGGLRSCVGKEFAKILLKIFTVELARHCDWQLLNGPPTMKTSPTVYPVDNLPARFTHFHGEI
Sequence of CYP26B1 (Q9NR63 whole entry, species assumed): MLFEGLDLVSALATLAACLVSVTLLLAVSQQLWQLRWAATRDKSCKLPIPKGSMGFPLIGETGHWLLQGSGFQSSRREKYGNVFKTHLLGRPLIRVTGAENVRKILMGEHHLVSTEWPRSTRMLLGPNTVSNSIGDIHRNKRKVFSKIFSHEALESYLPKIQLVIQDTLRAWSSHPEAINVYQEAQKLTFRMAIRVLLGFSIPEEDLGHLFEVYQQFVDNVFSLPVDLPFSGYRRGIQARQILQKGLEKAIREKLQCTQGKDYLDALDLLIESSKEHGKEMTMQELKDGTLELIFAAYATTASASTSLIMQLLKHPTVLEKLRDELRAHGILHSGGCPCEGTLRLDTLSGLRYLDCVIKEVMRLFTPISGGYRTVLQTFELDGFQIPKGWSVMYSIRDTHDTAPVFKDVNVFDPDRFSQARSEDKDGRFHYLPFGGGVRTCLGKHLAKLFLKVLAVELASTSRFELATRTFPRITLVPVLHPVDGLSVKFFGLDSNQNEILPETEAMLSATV

pIC50 (CYP26A1) | pIC50 (CYP26B1) | SMILES | inhibitory activity towards CYP26A1 (in words) (CYP26A1) | inhibition of CYP26A1-mediated RA metabolism compared with ketoconazole (in words) (CYP26A1; see IC50 values in Table 2) | inhibition of CYP26B1 enzyme (in words) (CYP26B1) | Luciferase Activity RLU Avg ([1]; 0.1 μM) [RLU] | Luciferase Activity RLU Avg ([1]; 1 μM) [RLU] | Luciferase Activity RLU Avg ([1]; 10 μM) [RLU] | enhancement of RA signaling, induction of CYP26A1 expression (in words) [2] | enhancement of RA signaling, induction of CYP26A1 expression (in words) ([2]; listed as GGP12) | expression of RA target genes, compound given alone (in words) [3] | retinoid-like activity (in words) ([3]; FIG. 8)
7.00 | < 3.00 | Cc1cc2c(cc1S(=O)(=O)Nc1ccc(C(C)(C)C(=O)O)cc1)C(C)(C)CCC2(C)C [Cmpd 12] | selective inhibitory activity towards CYP26A1 | comparable to or better than ketoconazole | None of the above compounds inhibited the CYP26B1 enzyme | 0.067 | 0.082 | 0.041 | greatly enhance RA signaling | enhancement of RA signaling |  | 
< 3.00 | < 4.00 | CC1(C)CCC(C)(C)c2cc(S(=O)(=O)Nc3ccc(C(=O)O)cc3)ccc21 [Cmpd 15] | does not exhibit any inhibitory activity |  | does not exhibit any inhibitory activity | 0.129 | 0.212 | 0.816 |  |  | induces expression of the RA target gene CYP26A1 | does exhibit retinoid-like activity
